Here are results for nine compounds from patent publication US10189796B2, “[4-(1,3,3-trimethyl-2-oxo-3,4-dihydro-1H-quinoxalin-7-yl)phenoxy]ethyloxy compound or salt thereof” (SANTEN PHARMACEUTICAL CO., LTD., priority 2015, dated 2019).

One experiment has as its target Recombinant human GR (Homo sapiens (Human), UniProt P04150). Put plainly: GR competitive binding assay by fluorescence polarization. Conditions: 20 μM test compound solution, 10 μL/well; 2 hours; DEX positive control; read-out: GR binding rate (%). The procedure, abridged: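 Fluorescence polarization competition between test compound and Fluormone GS1 fluorescent glucocorticoid ligand for recombinant human GR. Buffer 10 mM potassium phosphate pH 7.4, 20 mM Na2MoO4, 0.1 mM EDTA, 5 mM DTT, 2% DMSO. 2 h dark incubation at room temperature; binding ratio (%) scaled between buffer-only and DEX controls.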
On the technique in general: Fluorescence polarisation rises when a labelled molecule tumbles more slowly, as on binding a larger partner.

Experiment [1] relates to IL-2 production in normal human CD4+T cell. The experiment is described as follows: IL-2 production inhibitory action evaluation test (anti-CD3/CD28 antibody stimulation, ELISA). The class given is cell-based. Particulars: anti-CD3/CD28, 24 hours, read-out: IL-2 production inhibitory ratio (% of 1 μM). On the procedure:
(§1) In order to evaluate an action of the present compound as a GR agonist, IL-2 and IL-4 production inhibitory actions in a normal human CD4^+T cell after stimulation by an anti-CD3/CD28 antibody were investigated. For the measurement of the IL-2 and IL-4 production amounts, the ELISA method (manufactured by R&D Systems, Cat No. D2050, HS400) was used, and a procedure was carried out according to the protocol attached thereto. Hereinafter, the specific method will be described.
(§2) Dynabeads (Registered Trademark) Human T-Activator CD3/CD28 (4×10^7 beads/mL) (Dynabeads) was used, and prepared according to the protocol attached thereto.
(§3) After the test compound was dissolved in dimethylsulfoxide, the solution was diluted with an RPMI medium to prepare 400 μM of a test compound solution. The solution was diluted with a 4% dimethylsulfoxide-containing RPMI medium to prepare 40 μM of a test compound solution.
(§4) Used cells: normal peripheral blood human CD4^+T cell (human CD4^+T cell) (Lonza)
(§5) • 1) Frozen human CD4^+T cells were thawed in a warm water bath at 37° C., and added to an RPMI medium (RPMI 1640 containing 10% FBS, 100 U/mL of Penicillin, and […] of Streptomycin). • 2) The above suspension was recovered and centrifuged at 900 rpm for 10 minutes to give a cell sediment. • 3) The cell sediment was suspended in an RPMI medium and the operation of 2) was carried out. • 4) The cell sediment was adjusted to 4×10^5 cells/mL with an RPMI medium. • 5) The above suspension was cultured in a CO2 incubator (temperature: 37° C., CO2 concentration: 5%) for 1 hour or longer. (Test Method and Measurement Method) • 1) The cultured human CD4^+T cells were recovered and the cells were seeded in 96-well flat bottom culture plates at each 8.0×10^4 cells/0.2 mL/well. • 2) The test compound solution was added with each 5 μL/well. • 3) The prepared Dynabeads were added with each 2 μL/well. • 4) The sample in which 4% dimethylsulfoxide-containing RPMI medium was added with each 5 μL/well in place of each test compound solution, and the RPMI medium was added with each 2 μL/well in place of the Dynabeads was made a negative control. • 5) The sample in which 4% dimethylsulfoxide-containing RPMI medium was added with each 5 μL/well in place of each test compound solution was made a positive control. • 6) After completion of 24 hours cultivation, the supernatant was recovered and the amounts of IL-2 and IL-4 released in the supernatant was measured by using an ELISA Kit. • 7) The IL-2 and IL-4 production inhibitory ratios were calculated according to the following calculation formula. (Calculation of IL-2 and IL-4 Production Inhibitory Ratios)
(§6) The IL-2 and IL-4 production inhibitory ratios (%) were calculated by the following formula, respectively. IL-2 or IL-4 production inhibitory ratio (%)=100×{1−(IL-2 or IL-4 production amounts of each test compound solution−average value of IL-2 or IL-4 production amount of negative control group)/(average value of IL-2 or IL-4 production amount of positive control group−average value of IL-2 or IL-4 production amount of negative control group)}(%) (Test Result and Consideration)
(In general: In an ELISA, binding on a coated surface is turned into a signal by an enzyme label.)

In experiment [2] the test system is IL-4 production in normal human CD4+T cell. Put plainly: IL-4 production inhibitory action evaluation test (anti-CD3/CD28 antibody stimulation, ELISA). The format is cell-based. Conditions: anti-CD3/CD28, 24 hours, read-out: IL-4 production inhibitory ratio (% of 1 μM). Here is the method:
as §1, §2, §3, §4, §5, §6

Recombinant human GR, sequence (P04150 whole entry): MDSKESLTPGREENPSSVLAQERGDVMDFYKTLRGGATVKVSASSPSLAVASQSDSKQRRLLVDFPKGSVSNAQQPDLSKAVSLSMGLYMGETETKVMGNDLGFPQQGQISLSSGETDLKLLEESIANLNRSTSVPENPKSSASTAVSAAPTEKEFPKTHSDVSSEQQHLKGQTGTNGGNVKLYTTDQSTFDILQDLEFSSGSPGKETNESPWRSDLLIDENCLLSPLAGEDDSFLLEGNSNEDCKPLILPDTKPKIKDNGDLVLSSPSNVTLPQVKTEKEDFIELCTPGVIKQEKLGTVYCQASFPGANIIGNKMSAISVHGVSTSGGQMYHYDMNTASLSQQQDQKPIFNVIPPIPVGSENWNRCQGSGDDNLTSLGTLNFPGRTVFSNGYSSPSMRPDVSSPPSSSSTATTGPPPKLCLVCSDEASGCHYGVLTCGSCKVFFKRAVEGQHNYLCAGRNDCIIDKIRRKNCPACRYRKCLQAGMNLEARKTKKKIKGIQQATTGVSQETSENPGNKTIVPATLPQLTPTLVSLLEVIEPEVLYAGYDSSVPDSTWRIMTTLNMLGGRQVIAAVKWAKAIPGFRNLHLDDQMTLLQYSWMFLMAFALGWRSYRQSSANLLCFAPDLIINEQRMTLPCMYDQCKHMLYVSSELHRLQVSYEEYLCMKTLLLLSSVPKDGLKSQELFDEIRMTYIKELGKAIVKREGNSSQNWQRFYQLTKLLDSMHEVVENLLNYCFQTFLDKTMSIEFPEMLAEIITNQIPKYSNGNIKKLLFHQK

For `COc1cc(OC[C@H](C)O)ccc1-c1ccc2c(c1COc1cc(F)ccc1C)N(C)C(=O)C(C)(C)N2` [Compound 1-1, (S)-8-(5-fluoro-2-methylphenoxymethyl)-7-[4-(2-hydroxypropyl)oxy-2-methoxy-phenyl]-1,3,3-trimethyl-3,4-dihydro-1H-quinoxalin-2-one], the inhibition at 10 µM on Recombinant human GR is greater than 99%. The inhibition at 1 µM was 73% in experiment [1] and 91% in experiment [2].
For `COc1cc(OC[C@@H](O)CCO)ccc1-c1ccc2c(c1COc1cc(F)ccc1C)N(C)C(=O)C(C)(C)N2` [Compound 2-1, (S)-7-[4-(2,4-dihydroxybutyl)oxy-2-methoxyphenyl]-8-(5-fluoro-2-methyl-phenoxymethyl)-1,3,3-trimethyl-3,4-dihydro-1H-quinoxalin-2-one], in that order: greater than 99%, 79% and 83%.
On to `COc1cc(OC[C@@H](O)CC#N)ccc1-c1ccc2c(c1COc1cc(F)ccc1C)N(C)C(=O)C(C)(C)N2` [Compound 5-2, (S)-7-[4-(3-cyano-2-hydroxypropyl)oxy-2-methoxyphenyl]-8-(5-fluoro-2-methyl-phenoxymethyl)-1,3,3-trimethyl-3,4-dihydro-1H-quinoxalin-2-one], for which the inhibition at 10 µM at Recombinant human GR is greater than 99%.
For `COc1cc(OC[C@H](C)OC(=O)CN(C)C)ccc1-c1ccc2c(c1COc1cc(F)ccc1C)N(C)C(=O)C(C)(C)N2` [Compound 11-1, (S)-7-[4-[2-(N,N-dimethylaminoacetoxy)propyl]oxy-2-methoxyphenyl]-8-(5-fluoro-2-methylphenoxymethyl)-1,3,3-trimethyl-3,4-dihydro-1H-quinoxalin-2-one], the inhibition at 10 µM on Recombinant human GR was found to be 99%. Besides, the inhibition at 1 µM in experiment [1] stood at 72%; in experiment [2], 87%.
On the same counts, the results for `COc1ccc(CO)cc1-c1ccc2c(c1COc1cc(F)ccc1C)N(C)C(=O)C(C)(C)N2` [Control compound B, 8-(5-fluoro-2-methylphenoxymethyl)-7-(5-hydroxymethyl-2-methoxyphenyl)-1,3,3-trimethyl-3,4-dihydro-1H-quinoxalin-2-one, reference compound] are greater than 99%, 35% and 51%.
As for `COc1ccc(O)cc1-c1ccc2c(c1COc1cc(F)ccc1C)N(C)C(=O)C(C)(C)N2` [Control compound C, 8-(5-fluoro-2-methylphenoxymethyl)-7-(5-hydroxy-2-methoxyphenyl)-1,3,3-trimethyl-3,4-dihydro-1H-quinoxalin-2-one], the inhibition at 10 µM at Recombinant human GR was greater than 99%. In addition, the inhibition at 1 µM in experiment [1] turned out to be 26%; in experiment [2] it was 56%.
On the same counts, the results for `CCCC(=O)Oc1ccc(-c2ccc3c(c2COc2cc(F)ccc2C)N(C)C(=O)C(C)(C)N3)c(OC)c1` [Control compound D, 7-(4-butyryloxy-2-methoxyphenyl)-8-(5-fluoro-2-methylphenoxymethyl)-1,3,3-trimethyl-3,4-dihydro-1H-quinoxalin-2-one, reference compound] are 98%, less than 0% and 46%.
For `COc1ccc(-c2ccc3c(c2COc2cc(F)ccc2C)N(C)C(=O)C(C)(C)N3)c(OC)c1` [Control compound E, 7-(2,4-dimethoxyphenyl)-8-(5-fluoro-2-methyl-phenoxymethyl)-1,3,3-trimethyl-3,4-dihydro-1H-quinoxalin-2-one, reference compound], the inhibition at 10 µM on Recombinant human GR stood at 98%. The figures for the inhibition at 1 µM in experiment [1] and in experiment [2] were less than 0% and 32%, respectively.
On the same counts, the results for `COCOc1ccc(-c2ccc3c(c2COc2cc(F)ccc2C)N(C)C(=O)C(C)(C)N3)c(OC)c1` [Control compound F, 8-(5-fluoro-2-methylphenoxymethyl)-7-(2-methoxy-4-methoxymethoxyphenyl)-1,3,3-trimethyl-3,4-dihydro-1H-quinoxalin-2-one, reference compound] are 94%, less than 0% and 29%.
